Test results published in PMC10714400, “Antimicrobial Peptide–Peptoid Hybrids with and without Membrane Disruption” (ACS Infectious Diseases, 2023).
Values after ≈ are worked out from the molar mass of the structure shown. Like-named read-outs stand apart in the source and are kept apart here. Where a SMILES comes first, the peptide text is derived from it. [ ]: non-standard residue; d: D form. Nleu = CC(C)CNCC(=O)O; Nlys = NCCCCNCC(=O)O

Tests used:
A. baumannii ATCC19606 = settings: ATCC19606, 4 h
In short: (§1)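 MTT added (20–30 min, room temperature); MIC read by eye as lowest concentration inhibiting visible growth (yellow). Polymyxin B positive control from 16 μg/mL.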

E. cloacae = tested on: E. cloacae
In short: (§2)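 MIC read visually after MTT staining: lowest compound concentration preventing visible growth (yellow wells). Inoculum ~5 × 10^5 CFU per well in MH broth; static incubation at 37 °C for ca. 18 h.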

E. coli W3110 = tested on: E. coli W3110
In short: as §2

K. pneumoniae NCTC418 = settings: NCTC418, 4 h
In short: as §1

K. pneumoniae OXA-48 = tested on: K. pneumoniae OXA-48
In short: as §2

P. aeruginosa PAO1 = settings: PAO1, 4 h
In short: as §2

PA14 2P4 (pmrB) = tested on: PA14 2P4 (pmrB)
In short: as §2

PA14 4.13 (phoQ) = tested on: PA14 4.13 (phoQ)
In short: as §2

PA14 4.18 (pmrB) = tested on: PA14 4.18 (pmrB)
In short: as §2

S. aureus COL (MRSA) = settings: COL, 4 h
In short: as §2

[1] = tested on: ZEM-1A (clinical MDR P. aeruginosa isolate); settings: CSV
In short: as §2

[2] = tested on: ZEM9A (clinical MDR P. aeruginosa isolate)
In short: as §2

S. aureus Newman = settings: Newman
In short: as §2

## CC(C)C[C@H](NC(=O)[C@H](CC(C)C)NC(=O)[C@H](CC(C)C)NC(=O)[C@H](CCCCN)NC(=O)[C@H](CC(C)C)NC(=O)[C@H](CC(C)C)NC(=O)CN(CCCCN)C(=O)CN(CC(C)C)C(=O)CN(CC(C)C)C(=O)CN(CCCCN)C(=O)CNCCCCN)C(N)=O [EB5, kkllkLLKLLL] (H-[Nlys][Nlys][Nleu][Nleu][Nlys]LLKLLL-NH2)
A. baumannii ATCC19606; pH 7.4
  MIC A. baumannii ATCC19606, full MH at pH 7.4: 2 ug/mL
A. baumannii ATCC19606; pH 8.5
  MIC A. baumannii ATCC19606, full MH at pH 8.5: >32 ug/mL
E. cloacae; 4 h, pH 7.4
  MIC E. cloacae, full MH at pH 7.4: 12 ug/mL
E. cloacae; 4 h, pH 8.5
  MIC E. cloacae: 4 µg/mL (≈ 3.03 µM)
E. cloacae; pH 7.4
  MIC E. cloacae: 8 to 16 µg/mL
E. coli W3110; CSV, […] MH at pH 7.4
  MIC E. coli W3110, […] MH at pH 7.4: 2 ug/mL
E. coli W3110; CSV, […] MH at pH 8.5
  MIC E. coli W3110, […] MH at pH 8.5: 2 ug/mL
E. coli W3110; CSV, full MH at pH 7.4
  MIC E. coli W3110, full MH at pH 7.4: 2 ug/mL
E. coli W3110; CSV, full MH at pH 8.5
  MIC E. coli W3110, full MH at pH 8.5: >32 ug/mL
E. coli W3110; diluted MH ([…] MH, pH 8.5) per Table 1 footnote b, 16–20 h at 37 °C
  MIC E. coli W3110 […]: 2 µg/mL (≈ 1.51 µM)
K. pneumoniae NCTC418; pH 7.4
  MIC K. pneumoniae NCTC418, full MH at pH 7.4: >32 ug/mL
K. pneumoniae NCTC418; pH 8.5
  MIC K. pneumoniae NCTC418, full MH at pH 8.5: 24 ug/mL
  MIC K. pneumoniae NCTC418 Full MH 8.5: 16 to 32 µg/mL
K. pneumoniae OXA-48; CSV, […] MH at pH 8.5
  MIC K. pneumoniae OXA-48, […] MH at pH 8.5: 8 ug/mL
K. pneumoniae OXA-48; CSV, full MH at pH 7.4
  MIC K. pneumoniae OXA-48, full MH at pH 7.4: >32 ug/mL
K. pneumoniae OXA-48; MH pH 7.4, 16–20 h at 37 °C
  MIC K. pneumoniae OXA-48: 32 to 64 µg/mL
K. pneumoniae OXA-48; Table S3, […] MH at pH 8.5
  MIC K. pneumoniae OXA-48: 8 µg/mL (≈ 6.05 µM)
P. aeruginosa PAO1; pH 7.4
  MIC P. aeruginosa PAO1, full MH at pH 7.4: 4 ug/mL
P. aeruginosa PAO1; pH 8.5
  MIC P. aeruginosa PAO1, full MH at pH 8.5: >32 ug/mL
PA14 2P4 (pmrB); CSV, […] MH at pH 8.5
  MIC P. aeruginosa PA14 2P4, […] MH at pH 8.5: 2 ug/mL
PA14 2P4 (pmrB); CSV, full MH at pH 7.4
  MIC P. aeruginosa PA14 2P4, full MH at pH 7.4: >32 ug/mL
PA14 2P4 (pmrB); MH pH 7.4, 16–20 h at 37 °C
  MIC PA14 2P4 (pmrB): >32 µg/mL
PA14 2P4 (pmrB); Table S3, […] MH at pH 8.5
  MIC P. aeruginosa PA14 2P4: 2 µg/mL (≈ 1.51 µM)
PA14 4.13 (phoQ); CSV, […] MH at pH 8.5
  MIC P. aeruginosa PA14 4.13, […] MH at pH 8.5: 2 ug/mL
PA14 4.13 (phoQ); CSV, full MH at pH 7.4
  MIC P. aeruginosa PA14 4.13, full MH at pH 7.4: 8 ug/mL
PA14 4.13 (phoQ); MH pH 7.4, 16–20 h at 37 °C
  MIC PA14 4.13 (phoQ): 8 µg/mL (≈ 6.05 µM)
PA14 4.13 (phoQ); Table S3, […] MH at pH 8.5
  MIC P. aeruginosa PA14 4.13: 2 µg/mL (≈ 1.51 µM)
PA14 4.18 (pmrB); CSV, […] MH at pH 8.5
  MIC P. aeruginosa PA14 4.18, […] MH at pH 8.5: 2 ug/mL
PA14 4.18 (pmrB); CSV, full MH at pH 7.4
  MIC P. aeruginosa PA14 4.18, full MH at pH 7.4: 32 ug/mL
PA14 4.18 (pmrB); MH pH 7.4, 16–20 h at 37 °C
  MIC PA14 4.18 (pmrB): 32 µg/mL (≈ 24.2 µM)
PA14 4.18 (pmrB); Table S3, […] MH at pH 8.5
  MIC P. aeruginosa PA14 4.18: 2 µg/mL (≈ 1.51 µM)
S. aureus COL (MRSA); pH 7.4
  MIC S. aureus COL (MRSA), full MH at pH 7.4: 8 ug/mL
S. aureus COL (MRSA); pH 8.5
  MIC S. aureus COL (MRSA), full MH at pH 8.5: >32 ug/mL
[1]; […] MH at pH 8.5
  MIC P. aeruginosa ZEM-1A, […] MH at pH 8.5: 2 ug/mL
[1]; full MH at pH 7.4
  MIC P. aeruginosa ZEM-1A, full MH at pH 7.4: 2 ug/mL
[2]; CSV, […] MH at pH 8.5
  MIC P. aeruginosa ZEM9A, […] MH at pH 8.5: 2 ug/mL
[2]; CSV, full MH at pH 7.4
  MIC P. aeruginosa ZEM9A, full MH at pH 7.4: 8 ug/mL
[2]; MH pH 7.4, 16–20 h at 37 °C
  MIC ZEM9A: 8 µg/mL (≈ 6.05 µM)
[2]; Table S3, […] MH at pH 8.5
  MIC P. aeruginosa ZEM9A: 2 µg/mL (≈ 1.51 µM)
S. aureus Newman; 4 h, pH 7.4
  MIC S. aureus Newman, full MH at pH 7.4: >32 ug/mL
S. aureus Newman; 4 h, pH 8.5
  MIC S. aureus Newman: 2 µg/mL (≈ 1.51 µM)
S. aureus Newman; pH 7.4
  MIC S. aureus Newman: >32 µg/mL
